Experimental findings from PubChem BioAssay (NCI) are described below.

Each structure is given as a SMILES string. Several values for one entry are separate records, joined by “and”; a condition that tells them apart may be missing. Equal entries are not always repeated.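 Protocol summary: plate cells (96-well), add compound at 5 concentrations, incubate 48 h, interpolate endpoints linearly. GI50: concentration for 50% inhibition of growth. TGI: concentration producing complete growth inhibition.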

Some test systems named below: BT-549 breast; HT29 colon; IGROV1 ovarian; MDA-MB-435; MOLT-4 leukemia; NCI-H226 lung; NCI-H460 lung; RXF 393 renal; SK-MEL-2 melanoma; TK-10 renal.
What all share (test): NCI anticancer screen, dose series, 48 h

For the compound `O=C(Nc1ncc(Cc2ccc(Cl)cc2)s1)c1ccc2c(c1)OCCO2`, the GI50 in the assay on BT-549 breast was 207 nM; in the assay on HT29 colon it was 171 nM; in the assay with IGROV1 ovarian, 126 nM; in the assay on MDA-MB-435, 19.7 nM; in the assay on MOLT-4 leukemia, 87.7 nM; in the assay on NCI-H226 lung, 358 nM. Besides, the GI50 with NCI-H460 lung is 40.4 nM; with RXF 393 renal it was 32.6 nM; in the assay with SK-MEL-2 melanoma, 343 nM; in the assay with TK-10 renal it was 245 nM. Also, the TGI with BT-549 breast was > 83400 nM; in the assay with HT29 colon, > 43400 nM; in the assay on IGROV1 ovarian, > 100000 nM; in the assay on MDA-MB-435, 45.9 nM; with MOLT-4 leukemia, > 100000 nM; in the assay on NCI-H460 lung, 38700 nM. The TGI in the assay with RXF 393 renal was 567 nM; in the assay on SK-MEL-2 melanoma, > 69400 nM; in the assay on TK-10 renal, > 32500 nM.
As for `OCCCNC(=S)Nc1ccc(-c2nc3ccccc3s2)cc1`, the GI50 in the assay on BT-549 breast was 25000 nM; in the assay on HT29 colon it was 32200 nM; in the assay with IGROV1 ovarian it was 13500 nM; in the assay with MDA-MB-435, 17900 nM; with MOLT-4 leukemia, 16700 nM; in the assay on NCI-H226 lung, 18500 nM. For the same compound, the GI50 was 25900 nM in the assay on NCI-H460 lung, 10400 nM in the assay on RXF 393 renal, 31600 nM with SK-MEL-2 melanoma and 19300 nM with TK-10 renal. Besides, the TGI was 82900 nM with BT-549 breast; > 100000 nM with HT29 colon; 95400 nM in the assay with IGROV1 ovarian; 50800 nM in the assay with MDA-MB-435; > 100000 nM in the assay on MOLT-4 leukemia; 49600 nM with NCI-H226 lung. Further, the TGI is > 100000 nM in the assay on NCI-H460 lung, 52400 nM in the assay with RXF 393 renal, > 100000 nM in the assay with SK-MEL-2 melanoma and 55800 nM in the assay with TK-10 renal.
Take `COc1cc([C@@H]2c3cc4c(cc3[C@H](O)[C@H]3COC(=O)[C@@H]23)OCO4)cc(OC)c1OC`: the GI50 was 632 nM and 259 nM with BT-549 breast; 360 nM and 104 nM in the assay with HT29 colon; 423 nM and 240 nM in the assay on IGROV1 ovarian; 124 nM and 31.5 nM with MDA-MB-435; 587 nM and 845 nM in the assay on MOLT-4 leukemia; 754 nM and 602 nM with NCI-H226 lung. Moreover, the GI50 is 371 nM and 138 nM in the assay on NCI-H460 lung; 211 nM and 316 nM in the assay with RXF 393 renal; 445 nM and 584 nM in the assay with SK-MEL-2 melanoma; 743 nM in the assay on TK-10 renal. Also, the TGI in the assay on BT-549 breast is > 42500 nM; with HT29 colon, > 3940 nM and 1060 nM; in the assay on IGROV1 ovarian, > 100000 nM; in the assay with MDA-MB-435, 377 nM and 132 nM; in the assay with MOLT-4 leukemia, > 100000 nM; in the assay with NCI-H226 lung it was > 100000 nM. Besides, the TGI in the assay with NCI-H460 lung was > 10000 nM and 3070 nM; in the assay with SK-MEL-2 melanoma, > 100000 nM; in the assay on TK-10 renal, 9860 nM.
As for `CCOC(=O)C1=C(N)Oc2cc(OC)ccc2C1c1ccc(F)c(F)c1` (stereo not drawn), the GI50 was 2050 nM with BT-549 breast; 481 nM in the assay on HT29 colon; 2720 nM in the assay with IGROV1 ovarian; 229 nM in the assay with MDA-MB-435; 1580 nM with MOLT-4 leukemia; 12900 nM with NCI-H226 lung. For the same compound, the GI50 in the assay on NCI-H460 lung is 1010 nM; with RXF 393 renal, 1550 nM; in the assay on SK-MEL-2 melanoma it was 542 nM; in the assay with TK-10 renal, 9500 nM. The TGI turned out to be 16300 nM with BT-549 breast; 11000 nM in the assay with HT29 colon; 20100 nM in the assay on IGROV1 ovarian; 844 nM with MDA-MB-435; 22300 nM in the assay on MOLT-4 leukemia; 32700 nM with NCI-H226 lung. Moreover, the TGI with NCI-H460 lung worked out at 15200 nM; in the assay with RXF 393 renal it was 8760 nM; in the assay on SK-MEL-2 melanoma, 15800 nM; with TK-10 renal, 21800 nM.
Regarding `COc1ccc2c(c1)N(CCO)C1=C(C(=O)OC1)C2c1cccc(Br)c1` (stereo not drawn), the GI50 in the assay with BT-549 breast was 305 nM; in the assay with HT29 colon, 42.9 nM; with IGROV1 ovarian it was 88 nM; in the assay on MDA-MB-435 it was 22.5 nM; in the assay on MOLT-4 leukemia, 458 nM; with NCI-H226 lung it was 175 nM. For the same compound, the GI50 in the assay with NCI-H460 lung was 47.7 nM; in the assay on RXF 393 renal, 48.2 nM; in the assay on SK-MEL-2 melanoma, 59.5 nM; in the assay with TK-10 renal, 349 nM. The TGI with BT-549 breast was 34000 nM; in the assay on HT29 colon, 387 nM; in the assay with IGROV1 ovarian it was > 100000 nM; in the assay with MDA-MB-435, 62.3 nM; with MOLT-4 leukemia, > 100000 nM; in the assay with NCI-H226 lung, 2560 nM. Moreover, the TGI was 5050 nM with NCI-H460 lung, 71000 nM in the assay with RXF 393 renal, 3240 nM in the assay with SK-MEL-2 melanoma and 83600 nM in the assay with TK-10 renal.
Consider `O=C(Nc1cccc2ccccc12)c1cc2ccccc2cc1O`, for which the GI50 in the assay on BT-549 breast was 3600 nM; in the assay with HT29 colon, 3550 nM; in the assay with IGROV1 ovarian, 1460 nM; with MDA-MB-435 it was 1870 nM; in the assay on MOLT-4 leukemia it was 3080 nM; in the assay on NCI-H226 lung it was 2500 nM. Further, the GI50 in the assay on NCI-H460 lung was 2060 nM; in the assay with RXF 393 renal, 2710 nM; with SK-MEL-2 melanoma, 2140 nM; with TK-10 renal it was 2800 nM. For the same compound, the TGI was found to be 16400 nM in the assay with BT-549 breast; 12400 nM in the assay with HT29 colon; 7270 nM with IGROV1 ovarian; 5050 nM with MDA-MB-435; 21500 nM in the assay with MOLT-4 leukemia; 9420 nM in the assay on NCI-H226 lung. Also, the TGI with NCI-H460 lung amounted to 5870 nM; in the assay with RXF 393 renal, 6680 nM; in the assay with SK-MEL-2 melanoma it was 4690 nM; in the assay on TK-10 renal, 6720 nM.
